Assay results reported in patent publication US12600931B2, “Microfluidic cell culture plate for air-liquid interface and 3D cultured tissue applications” (priority 2020, dated 2026).
“Also recorded” adds a separate entry of the source. Counter-ions that a name gives are not always drawn. Like-named read-outs stand apart in the source and are kept apart here.

Assays:
[1] = test system: IAV in human primary bronchial epithelial cells; settings: reported; cited from earlier work
[2] = test system: HCoV-NL63 in Calu-3 cells; settings: reported; cited from earlier work
HCoV-NL63 = type: cell-based; settings: 20 μM CM vs untreated/vehicle, 48 and 96 h p.i., particularly MOI=0.005, qualitative, scatter limits statistical significance
A/WSN/33 strain of IAV [3] = type: cell-based, influenza A virus
A/Hong Kong/8/68 H3N2 [4] = type: cell-based, influenza A virus
A/WSN/33 strain of IAV [5] = type: cell-based, influenza A virus; remark: listed apart in the source
A/Hong Kong/8/68 H3N2 [6] = type: cell-based, influenza A virus; remark: listed apart in the source

Row | SMILES | infection by IAV in human primary bronchial epithelial cells [1] | infection by HCoV-NL63 in Calu-3 cells [2] | viral copy number (RT-qPCR, apical wash) (HCoV-NL63) | viral copy number (RT-qPCR, apical wash) (HCoV-NL63; listed as CM) | viral titers (qRT-PCR) (A/WSN/33 strain of IAV [3]) | influenza replication (viral copies, RT-qPCR) (A/Hong Kong/8/68 H3N2 [4]) | viral copies in apical wash in response to oseltamivir dose (A/Hong Kong/8/68 H3N2 [4]) | effect of oseltamivir on barrier function (TEER) (A/WSN/33 strain of IAV [5]) | virus-induced disruption to barrier function and epithelial tight junction formation (A/Hong Kong/8/68 H3N2 [6])
1 | CN(C)C(=O)COC(=O)Cc1ccc(OC(=O)c2ccc(NC(=N)N)cc2)cc1 [camostat mesylate, Camostat mesylate] | partially block infection | partially block infection | observed reduction in viral copies | reduces viral copy number |  |  |  |  | 
2 | CCC(CC)O[C@@H]1C=C(C(=O)O)C[C@H](N)[C@H]1NC(C)=O [oseltamivir, Oseltamivir carboxylate] |  |  |  |  | reduction in viral titers | significantly reduced influenza replication | marked decrease in viral copies; also recorded: reduce viral copies | protective effect on barrier function | prevented virus-induced disruption to barrier function and epithelial tight junction formation
